{"source": "ChEMBL document CHEMBL4507272", "about": "(2021)", "key": {"[1]": {"target": "5-hydroxytryptamine receptor 1A (Homo sapiens, UniProt P08908)", "sequence (P08908 whole entry)": "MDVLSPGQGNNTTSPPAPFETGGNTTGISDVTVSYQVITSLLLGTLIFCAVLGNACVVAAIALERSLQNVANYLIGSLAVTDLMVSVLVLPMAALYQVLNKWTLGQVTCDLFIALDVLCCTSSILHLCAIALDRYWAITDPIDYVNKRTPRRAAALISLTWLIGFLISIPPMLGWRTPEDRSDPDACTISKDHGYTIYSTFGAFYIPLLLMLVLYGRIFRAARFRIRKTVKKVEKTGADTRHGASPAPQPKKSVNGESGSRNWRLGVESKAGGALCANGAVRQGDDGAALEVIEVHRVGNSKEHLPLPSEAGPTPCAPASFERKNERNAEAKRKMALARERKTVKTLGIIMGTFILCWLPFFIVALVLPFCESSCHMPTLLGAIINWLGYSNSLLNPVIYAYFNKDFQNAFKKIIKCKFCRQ", "assay": "GPCRScan assay: inhibition of 5-HT1A", "set-up": "radioligand conc. used [nm] 0.5 – 1.0, parental cells stable CHO"}, "[2]": {"target": "RAC-gamma serine/threonine-protein kinase (Homo sapiens) (UniProt Q9Y243)", "conditions": "Compound concentration 1000.0 nM"}, "[3]": {"target": "5'-AMP-activated protein kinase catalytic subunit alpha-2 (Homo sapiens) (UniProt P54646)", "conditions": "Compound concentration 1000.0 nM"}, "[4]": {"target": "Tyrosine-protein kinase Blk (Homo sapiens) (UniProt P51451)", "conditions": "Compound concentration 1000.0 nM"}, "[5]": {"target": "Bone morphogenetic protein receptor type-1B (Homo sapiens) (UniProt O00238)", "conditions": "Compound concentration 1000.0 nM"}, "[6]": {"target": "Calcium/calmodulin-dependent protein kinase type 1D (Homo sapiens) (UniProt Q8IU85)", "conditions": "Compound concentration 1000.0 nM"}, "[7]": {"target": "Calcium/calmodulin-dependent protein kinase type II subunit delta (Homo sapiens) (UniProt Q13557)", "conditions": "Compound concentration 1000.0 nM"}, "[8]": {"target": "Cyclin-dependent kinase-like 5 (Homo sapiens) (UniProt O76039)", "sequence (O76039 whole entry)": "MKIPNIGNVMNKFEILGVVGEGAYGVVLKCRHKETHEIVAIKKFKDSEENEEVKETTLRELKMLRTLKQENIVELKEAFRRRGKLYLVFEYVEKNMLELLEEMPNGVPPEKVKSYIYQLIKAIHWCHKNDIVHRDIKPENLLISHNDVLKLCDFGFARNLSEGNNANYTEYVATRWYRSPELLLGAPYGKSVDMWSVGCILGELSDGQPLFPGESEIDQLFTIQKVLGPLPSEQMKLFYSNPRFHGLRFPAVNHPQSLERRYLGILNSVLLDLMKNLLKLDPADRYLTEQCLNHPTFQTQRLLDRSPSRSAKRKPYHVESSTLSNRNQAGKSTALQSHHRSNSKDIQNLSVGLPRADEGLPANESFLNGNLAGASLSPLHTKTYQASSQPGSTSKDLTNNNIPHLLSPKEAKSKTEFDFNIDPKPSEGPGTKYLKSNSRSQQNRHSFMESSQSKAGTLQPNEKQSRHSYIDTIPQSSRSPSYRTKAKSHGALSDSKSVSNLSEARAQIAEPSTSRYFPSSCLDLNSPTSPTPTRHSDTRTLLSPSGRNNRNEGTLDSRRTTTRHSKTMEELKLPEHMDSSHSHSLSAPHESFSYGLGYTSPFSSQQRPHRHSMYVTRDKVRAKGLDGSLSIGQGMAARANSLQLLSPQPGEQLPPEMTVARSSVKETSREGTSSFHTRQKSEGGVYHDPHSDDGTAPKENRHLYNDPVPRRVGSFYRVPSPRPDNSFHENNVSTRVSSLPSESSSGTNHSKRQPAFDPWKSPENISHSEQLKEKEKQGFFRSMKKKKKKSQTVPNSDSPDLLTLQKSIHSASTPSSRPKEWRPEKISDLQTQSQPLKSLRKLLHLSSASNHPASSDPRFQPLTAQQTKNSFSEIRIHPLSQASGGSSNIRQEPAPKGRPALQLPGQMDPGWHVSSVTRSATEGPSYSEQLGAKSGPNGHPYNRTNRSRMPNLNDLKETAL", "conditions": "Compound concentration 1000.0 nM"}, "[9]": {"target": "Serine/threonine-protein kinase MRCK gamma (Homo sapiens) (UniProt Q6DT37)", "conditions": "Compound concentration 1000.0 nM"}, "[10]": {"target": "Dual specificity tyrosine-phosphorylation-regulated kinase 1B (Homo sapiens) (UniProt Q9Y463)", "conditions": "Compound concentration 1000.0 nM"}, "[11]": {"target": "Ephrin type-A receptor 3 (Homo sapiens) (UniProt P29320)", "sequence (P29320 whole entry)": "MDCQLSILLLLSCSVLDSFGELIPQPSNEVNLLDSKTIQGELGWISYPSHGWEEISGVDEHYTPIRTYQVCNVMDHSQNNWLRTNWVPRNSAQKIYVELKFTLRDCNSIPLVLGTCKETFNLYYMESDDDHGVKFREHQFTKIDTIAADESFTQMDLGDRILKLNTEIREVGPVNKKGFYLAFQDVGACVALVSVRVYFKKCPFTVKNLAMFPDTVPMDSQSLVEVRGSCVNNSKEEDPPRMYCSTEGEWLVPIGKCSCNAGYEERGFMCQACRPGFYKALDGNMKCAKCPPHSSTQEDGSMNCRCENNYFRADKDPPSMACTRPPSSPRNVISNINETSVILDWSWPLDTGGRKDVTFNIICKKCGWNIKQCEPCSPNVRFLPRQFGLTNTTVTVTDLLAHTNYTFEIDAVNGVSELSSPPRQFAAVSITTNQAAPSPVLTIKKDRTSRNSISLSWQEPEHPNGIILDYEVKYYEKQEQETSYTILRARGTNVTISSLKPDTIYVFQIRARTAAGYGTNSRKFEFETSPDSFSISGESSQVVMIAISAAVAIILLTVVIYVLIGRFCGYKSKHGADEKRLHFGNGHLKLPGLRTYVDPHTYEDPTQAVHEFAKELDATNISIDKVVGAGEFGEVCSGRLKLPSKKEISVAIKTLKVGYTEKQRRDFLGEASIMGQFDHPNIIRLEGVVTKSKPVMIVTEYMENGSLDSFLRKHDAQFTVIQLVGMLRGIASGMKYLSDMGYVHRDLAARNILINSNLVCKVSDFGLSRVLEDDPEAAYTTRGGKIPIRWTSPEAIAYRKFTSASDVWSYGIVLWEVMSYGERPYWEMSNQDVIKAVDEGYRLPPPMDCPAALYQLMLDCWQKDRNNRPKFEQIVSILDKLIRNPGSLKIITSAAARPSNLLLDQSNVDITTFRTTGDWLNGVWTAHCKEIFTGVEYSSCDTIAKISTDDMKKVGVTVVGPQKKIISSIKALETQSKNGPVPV", "conditions": "Compound concentration 1000.0 nM"}, "[12]": {"target": "Receptor tyrosine-protein kinase erbB-2 (Homo sapiens) (UniProt P04626)", "sequence (P04626 whole entry)": "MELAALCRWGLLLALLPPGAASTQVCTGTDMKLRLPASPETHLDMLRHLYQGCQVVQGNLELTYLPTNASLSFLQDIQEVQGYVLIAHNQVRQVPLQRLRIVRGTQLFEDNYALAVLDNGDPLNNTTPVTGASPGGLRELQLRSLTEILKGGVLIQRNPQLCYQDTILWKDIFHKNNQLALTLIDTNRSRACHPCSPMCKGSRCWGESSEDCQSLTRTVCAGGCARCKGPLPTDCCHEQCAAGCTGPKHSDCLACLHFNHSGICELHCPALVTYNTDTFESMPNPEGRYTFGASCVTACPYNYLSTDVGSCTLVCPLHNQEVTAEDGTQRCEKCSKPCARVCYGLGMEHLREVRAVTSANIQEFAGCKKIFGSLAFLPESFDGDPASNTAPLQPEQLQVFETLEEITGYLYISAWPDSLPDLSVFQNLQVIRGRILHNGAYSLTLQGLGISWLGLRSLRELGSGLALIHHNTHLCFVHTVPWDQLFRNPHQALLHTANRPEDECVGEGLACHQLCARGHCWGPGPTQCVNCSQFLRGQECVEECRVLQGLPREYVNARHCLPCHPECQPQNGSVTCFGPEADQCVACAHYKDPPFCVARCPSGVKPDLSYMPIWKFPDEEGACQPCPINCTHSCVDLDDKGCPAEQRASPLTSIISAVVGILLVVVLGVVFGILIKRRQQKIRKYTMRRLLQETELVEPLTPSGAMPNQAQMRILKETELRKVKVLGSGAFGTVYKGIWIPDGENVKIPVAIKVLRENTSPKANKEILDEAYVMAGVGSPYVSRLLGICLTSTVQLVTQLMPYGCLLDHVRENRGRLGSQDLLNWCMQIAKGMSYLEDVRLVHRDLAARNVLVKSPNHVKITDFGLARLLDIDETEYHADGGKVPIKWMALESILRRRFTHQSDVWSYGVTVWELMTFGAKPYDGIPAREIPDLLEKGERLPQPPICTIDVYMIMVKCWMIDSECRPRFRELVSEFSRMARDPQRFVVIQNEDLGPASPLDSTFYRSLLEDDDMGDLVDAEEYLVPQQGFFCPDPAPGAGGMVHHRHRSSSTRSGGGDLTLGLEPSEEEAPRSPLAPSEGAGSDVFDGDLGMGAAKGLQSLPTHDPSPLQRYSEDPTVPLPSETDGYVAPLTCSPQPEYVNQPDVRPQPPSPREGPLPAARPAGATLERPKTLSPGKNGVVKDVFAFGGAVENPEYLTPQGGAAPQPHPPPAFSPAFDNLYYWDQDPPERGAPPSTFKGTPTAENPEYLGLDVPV", "conditions": "Compound concentration 1000.0 nM"}, "[13]": {"target": "Serine/threonine-protein kinase/endoribonuclease IRE1 (Homo sapiens) (UniProt O75460)", "conditions": "Compound concentration 1000.0 nM"}, "[14]": {"target": "Tyrosine-protein kinase Fes/Fps (Homo sapiens) (UniProt P07332)", "conditions": "Compound concentration 1000.0 nM"}, "[15]": {"system": "Receptor-type tyrosine-protein kinase FLT3 (Homo sapiens), P36888 [D835V]", "conditions": "Compound concentration 1000.0 nM"}, "[16]": {"target": "Receptor-type tyrosine-protein kinase FLT3 (Homo sapiens) (UniProt P36888)", "conditions": "Compound concentration 1000.0 nM"}, "[17]": {"target": "Rhodopsin kinase GRK7 (Homo sapiens) (UniProt Q8WTQ7)", "conditions": "Compound concentration 1000.0 nM"}, "[18]": {"target": "Serine/threonine-protein kinase ICK (Homo sapiens) (UniProt Q9UPZ9)", "sequence (Q9UPZ9 whole entry)": "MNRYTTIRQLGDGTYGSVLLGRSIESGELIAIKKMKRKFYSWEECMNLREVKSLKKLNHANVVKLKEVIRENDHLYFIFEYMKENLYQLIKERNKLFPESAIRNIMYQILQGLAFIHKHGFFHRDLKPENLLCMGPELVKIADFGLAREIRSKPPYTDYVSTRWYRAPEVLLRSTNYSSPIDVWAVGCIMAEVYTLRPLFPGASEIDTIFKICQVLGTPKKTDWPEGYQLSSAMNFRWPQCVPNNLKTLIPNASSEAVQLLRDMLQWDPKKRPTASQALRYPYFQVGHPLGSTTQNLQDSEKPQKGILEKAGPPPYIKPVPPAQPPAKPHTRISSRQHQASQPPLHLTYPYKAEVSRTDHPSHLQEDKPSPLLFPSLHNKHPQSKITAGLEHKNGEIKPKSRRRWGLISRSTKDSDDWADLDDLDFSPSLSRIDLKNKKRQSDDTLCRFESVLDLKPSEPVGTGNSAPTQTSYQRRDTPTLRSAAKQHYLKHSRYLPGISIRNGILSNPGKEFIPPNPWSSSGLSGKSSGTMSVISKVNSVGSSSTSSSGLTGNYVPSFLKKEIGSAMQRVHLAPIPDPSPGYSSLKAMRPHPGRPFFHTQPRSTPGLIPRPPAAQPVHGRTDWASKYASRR", "conditions": "Compound concentration 1000.0 nM"}, "[19]": {"target": "Interleukin-1 receptor-associated kinase 1 (Homo sapiens) (UniProt P51617)", "conditions": "Compound concentration 1000.0 nM"}, "[20]": {"system": "Mast/stem cell growth factor receptor Kit (Homo sapiens), P10721 [A829P]", "conditions": "Compound concentration 1000.0 nM"}, "[21]": {"system": "Mast/stem cell growth factor receptor Kit (Homo sapiens), P10721 [V559D,T670I]", "conditions": "Compound concentration 1000.0 nM"}, "[22]": {"target": "MAP kinase-interacting serine/threonine-protein kinase 2 (Homo sapiens) (UniProt Q9HBH9)", "conditions": "Compound concentration 1000.0 nM"}, "[23]": {"target": "Mitogen-activated protein kinase kinase kinase 9 (Homo sapiens) (UniProt P80192)", "conditions": "Compound concentration 1000.0 nM"}, "[24]": {"target": "Serine/threonine-protein kinase MRCK beta (Homo sapiens) (UniProt Q9Y5S2)", "conditions": "Compound concentration 1000.0 nM"}, "[25]": {"target": "Serine/threonine-protein kinase Nek2 (Homo sapiens) (UniProt P51955)", "conditions": "Compound concentration 1000.0 nM"}, "[26]": {"target": "Serine/threonine-protein kinase Nek7 (Homo sapiens) (UniProt Q8TDX7)", "sequence (Q8TDX7 whole entry, looked up)": "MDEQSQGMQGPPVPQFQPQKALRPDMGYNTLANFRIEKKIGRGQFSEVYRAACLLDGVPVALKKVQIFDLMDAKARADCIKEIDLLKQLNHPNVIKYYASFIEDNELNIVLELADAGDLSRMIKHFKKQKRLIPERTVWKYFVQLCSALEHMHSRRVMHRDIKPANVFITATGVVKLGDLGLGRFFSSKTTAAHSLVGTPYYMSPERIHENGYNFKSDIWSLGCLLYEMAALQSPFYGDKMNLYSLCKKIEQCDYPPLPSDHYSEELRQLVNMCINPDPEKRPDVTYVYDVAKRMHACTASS", "conditions": "Compound concentration 1000.0 nM"}, "[27]": {"target": "Serine/threonine-protein kinase PAK 3 (Homo sapiens) (UniProt O75914)", "conditions": "Compound concentration 1000.0 nM"}, "[28]": {"target": "Platelet-derived growth factor receptor alpha (Homo sapiens) (UniProt P16234)", "conditions": "Compound concentration 1000.0 nM"}, "[29]": {"system": "Phosphatidylinositol 4,5-bisphosphate 3-kinase catalytic subunit alpha isoform (Homo sapiens), P42336 [E542K]", "conditions": "Compound concentration 1000.0 nM"}, "[30]": {"system": "Phosphatidylinositol 4,5-bisphosphate 3-kinase catalytic subunit alpha isoform (Homo sapiens), P42336 [E545K]", "conditions": "Compound concentration 1000.0 nM"}, "[31]": {"target": "Serine/threonine-protein kinase PLK3 (Homo sapiens) (UniProt Q9H4B4)", "conditions": "Compound concentration 1000.0 nM"}, "[32]": {"target": "cAMP-dependent protein kinase catalytic subunit PRKX (Homo sapiens) (UniProt P51817)", "conditions": "Compound concentration 1000.0 nM"}, "[33]": {"target": "Receptor-interacting serine/threonine-protein kinase 2 (Homo sapiens) (UniProt O43353)", "conditions": "Compound concentration 1000.0 nM"}, "[34]": {"target": "Serine/threonine-protein kinase SIK1 (Homo sapiens) (UniProt P57059)", "conditions": "Compound concentration 1000.0 nM"}, "[35]": {"target": "STE20-like serine/threonine-protein kinase (Homo sapiens) (UniProt Q9H2G2)", "conditions": "Compound concentration 1000.0 nM"}, "[36]": {"target": "Serine/threonine-protein kinase TBK1 (Homo sapiens) (UniProt Q9UHD2)", "conditions": "Compound concentration 1000.0 nM"}, "[37]": {"target": "TGF-beta receptor type-1 (Homo sapiens) (UniProt P36897)", "conditions": "Compound concentration 1000.0 nM"}, "[38]": {"target": "Non-receptor tyrosine-protein kinase TYK2 (Homo sapiens) (UniProt P29597)", "conditions": "Compound concentration 1000.0 nM"}, "[39]": {"target": "Serine/threonine-protein kinase ULK2 (Homo sapiens) (UniProt Q8IYT8)", "conditions": "Compound concentration 1000.0 nM"}, "[40]": {"target": "Serine/threonine-protein kinase VRK2 (Homo sapiens) (UniProt Q86Y07)", "conditions": "Compound concentration 1000.0 nM"}, "[41]": {"target": "Wee1-like protein kinase 2 (Homo sapiens) (UniProt P0C1S8)", "conditions": "Compound concentration 1000.0 nM"}, "[42]": {"target": "5-hydroxytryptamine receptor 5A (Homo sapiens) (UniProt P47898)", "conditions": "Compound concentration 10.0 uM"}, "[43]": {"target": "Beta-1 adrenergic receptor (Homo sapiens, UniProt P08588)", "sequence (P08588 whole entry, looked up)": "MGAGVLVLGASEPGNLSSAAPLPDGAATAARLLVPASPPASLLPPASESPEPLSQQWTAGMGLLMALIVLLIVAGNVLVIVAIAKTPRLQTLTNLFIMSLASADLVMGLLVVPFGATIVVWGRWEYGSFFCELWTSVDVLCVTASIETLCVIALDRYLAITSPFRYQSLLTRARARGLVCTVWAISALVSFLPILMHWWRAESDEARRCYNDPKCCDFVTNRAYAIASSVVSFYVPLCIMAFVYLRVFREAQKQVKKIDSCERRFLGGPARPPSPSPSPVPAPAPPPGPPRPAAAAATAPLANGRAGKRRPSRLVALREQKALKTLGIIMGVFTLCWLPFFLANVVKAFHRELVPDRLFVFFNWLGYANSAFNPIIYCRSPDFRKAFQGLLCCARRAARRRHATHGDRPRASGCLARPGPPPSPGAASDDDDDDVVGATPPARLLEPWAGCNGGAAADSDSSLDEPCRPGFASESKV", "conditions": "Compound concentration 10.0 uM"}, "[44]": {"target": "Alpha-1D adrenergic receptor (Homo sapiens) (UniProt P25100)", "conditions": "Compound concentration 10.0 uM"}}}
{"smiles": "CC(=O)C1=C(C)N(c2cccc(C(F)(F)F)c2)C(=O)N[C@@H]1c1ccc(C#N)nc1", "note": "[BAY-678]", "values": [{"measurement": "Ki", "setting": "[1]; read-out: Ki", "result": 4.98, "unit": "µM"}, {"measurement": "Ki", "setting": "[1]; read-out: pKi (converted)", "result": 4.9, "unit": "µM"}, {"measurement": "residual activity", "setting": "[2]", "result": 90.6, "unit": "%"}, {"measurement": "residual activity", "setting": "[3]", "result": 80.4, "unit": "%"}, {"measurement": "residual activity", "setting": "[4]", "result": 95.8, "unit": "%"}, {"measurement": "residual activity", "setting": "[5]", "result": 74.2, "unit": "%"}, {"measurement": "residual activity", "setting": "[6]", "result": 79.4, "unit": "%"}, {"measurement": "residual activity", "setting": "[7]", "result": 100, "unit": "%"}, {"measurement": "residual activity", "setting": "[8]", "result": 100, "unit": "%"}, {"measurement": "residual activity", "setting": "[9]", "result": 79.3, "unit": "%"}, {"measurement": "residual activity", "setting": "[10]", "result": 100, "unit": "%"}, {"measurement": "residual activity", "setting": "[11]", "result": 100, "unit": "%"}, {"measurement": "residual activity", "setting": "[12]", "result": 95.6, "unit": "%"}, {"measurement": "residual activity", "setting": "[13]", "result": 100, "unit": "%"}, {"measurement": "residual activity", "setting": "[14]", "result": 84.1, "unit": "%"}, {"measurement": "residual activity", "setting": "[15]", "result": 64.2, "unit": "%"}, {"measurement": "residual activity", "setting": "[16]", "result": 82.9, "unit": "%"}, {"measurement": "residual activity", "setting": "[17]", "result": 100, "unit": "%"}, {"measurement": "residual activity", "setting": "[18]", "result": 100, "unit": "%"}, {"measurement": "residual activity", "setting": "[19]", "result": 100, "unit": "%"}, {"measurement": "residual activity", "setting": "[20]", "result": 80.8, "unit": "%"}, {"measurement": "residual activity", "setting": "[21]", "result": 96.7, "unit": "%"}, {"measurement": "residual activity", "setting": "[22]", "result": 84.8, "unit": "%"}, {"measurement": "residual activity", "setting": "[23]", "result": 94, "unit": "%"}, {"measurement": "residual activity", "setting": "[24]", "result": 100, "unit": "%"}, {"measurement": "residual activity", "setting": "[25]", "result": 100, "unit": "%"}, {"measurement": "residual activity", "setting": "[26]", "result": 100, "unit": "%"}, {"measurement": "residual activity", "setting": "[27]", "result": 86.3, "unit": "%"}, {"measurement": "residual activity", "setting": "[28]", "result": 100, "unit": "%"}, {"measurement": "residual activity", "setting": "[29]", "result": 100, "unit": "%"}, {"measurement": "residual activity", "setting": "[30]", "result": 77.5, "unit": "%"}, {"measurement": "residual activity", "setting": "[31]", "result": 84.2, "unit": "%"}, {"measurement": "residual activity", "setting": "[32]", "result": 100, "unit": "%"}, {"measurement": "residual activity", "setting": "[33]", "result": 98.7, "unit": "%"}, {"measurement": "residual activity", "setting": "[34]", "result": 100, "unit": "%"}, {"measurement": "residual activity", "setting": "[35]", "result": 98.4, "unit": "%"}, {"measurement": "residual activity", "setting": "[36]", "result": 89.5, "unit": "%"}, {"measurement": "residual activity", "setting": "[37]", "result": 99.2, "unit": "%"}, {"measurement": "residual activity", "setting": "[38]", "result": 94.9, "unit": "%"}, {"measurement": "residual activity", "setting": "[39]", "result": 100, "unit": "%"}, {"measurement": "residual activity", "setting": "[40]", "result": 77.6, "unit": "%"}, {"measurement": "residual activity", "setting": "[41]", "result": 100, "unit": "%"}, {"measurement": "inhibition", "setting": "[42]", "result": 4.22, "unit": "%"}, {"measurement": "inhibition", "setting": "[43]", "result": 60, "unit": "%"}, {"measurement": "inhibition", "setting": "[44]", "result": 3.11, "unit": "%"}]}
